Reference: PubChem BioAssay (NCI)
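Cells were grown in 96-well plates and exposed to each compound for 48 hours at five concentrations; endpoints were interpolated linearly between bracketing concentrations, or set to the highest concentration if not reached. GI50 = concentration required for 50% inhibition of growth. Definition used: TGI = concentration required for complete inhibition of growth.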

test system: NCI-H23 lung; experiment: inhibition of tumour cell growth, NCI panel, 48 h

Row | SMILES | TGI [µM] | GI50 [µM]
1 | CCCCCCc1cc2cc(C(=O)Nc3ccc(F)cc3)c(=N)oc2cc1O | 4.6 | 
2 | CN1C(NNC(=O)c2cccnc2)=NS(=O)(=O)c2cc(Cl)ccc21 | > 100 | > 100
3 | Nc1c(C(=O)Nc2ccccc2Cl)sc2nc3c(cc12)C(=O)CCC3 | > 100 | 2.04
4 | COc1ccc(-c2cc(Nc3ccnc(N4CCOCC4)n3)on2)cc1 | 29.1 | 0.516

test system: NCI-H460 lung; experiment: inhibition of tumour cell growth, NCI panel, 48 h

Row | SMILES | TGI [µM] | GI50 [µM]
5 | CCCCCCc1cc2cc(C(=O)Nc3ccc(F)cc3)c(=N)oc2cc1O | > 100 | 
6 | CN1C(NNC(=O)c2cccnc2)=NS(=O)(=O)c2cc(Cl)ccc21 | > 100 | > 100
7 | Nc1c(C(=O)Nc2ccccc2Cl)sc2nc3c(cc12)C(=O)CCC3 | > 100 | 0.673
8 | COc1ccc(-c2cc(Nc3ccnc(N4CCOCC4)n3)on2)cc1 | 10.4 | 0.24

test system: NCI-H522 lung; experiment: inhibition of tumour cell growth, NCI panel, 48 h

Row | SMILES | TGI [µM] | GI50 [µM]
9 | CCCCCCc1cc2cc(C(=O)Nc3ccc(F)cc3)c(=N)oc2cc1O | 6.13 | 
10 | CN1C(NNC(=O)c2cccnc2)=NS(=O)(=O)c2cc(Cl)ccc21 | > 100 | > 100
11 | Nc1c(C(=O)Nc2ccccc2Cl)sc2nc3c(cc12)C(=O)CCC3 | > 100 | 0.777
12 | COc1ccc(-c2cc(Nc3ccnc(N4CCOCC4)n3)on2)cc1 | 3.12 | 0.0815

test system: NCI/ADR-RES ovarian; experiment: inhibition of tumour cell growth, NCI panel, 48 h

Row | SMILES | TGI [µM] | GI50 [µM]
13 | CCCCCCc1cc2cc(C(=O)Nc3ccc(F)cc3)c(=N)oc2cc1O | 8.94 | 
14 | CN1C(NNC(=O)c2cccnc2)=NS(=O)(=O)c2cc(Cl)ccc21 | > 100 | > 100
15 | Nc1c(C(=O)Nc2ccccc2Cl)sc2nc3c(cc12)C(=O)CCC3 | > 100 | 5.34
16 | COc1ccc(-c2cc(Nc3ccnc(N4CCOCC4)n3)on2)cc1 | 5.76 | 0.143

test system: OVCAR-3 ovarian; experiment: inhibition of tumour cell growth, NCI panel, 48 h

Row | SMILES | TGI [µM] | GI50 [µM]
17 | CCCCCCc1cc2cc(C(=O)Nc3ccc(F)cc3)c(=N)oc2cc1O | > 100 | 
18 | CN1C(NNC(=O)c2cccnc2)=NS(=O)(=O)c2cc(Cl)ccc21 | > 100 | > 100
19 | Nc1c(C(=O)Nc2ccccc2Cl)sc2nc3c(cc12)C(=O)CCC3 | > 100 | 1.22
20 | COc1ccc(-c2cc(Nc3ccnc(N4CCOCC4)n3)on2)cc1 | 2.66 | 0.0728

test system: OVCAR-4 ovarian; experiment: inhibition of tumour cell growth, NCI panel, 48 h

Row | SMILES | TGI [µM] | GI50 [µM]
21 | CCCCCCc1cc2cc(C(=O)Nc3ccc(F)cc3)c(=N)oc2cc1O | 23.2 | 
22 | CN1C(NNC(=O)c2cccnc2)=NS(=O)(=O)c2cc(Cl)ccc21 | > 100 | > 100
23 | Nc1c(C(=O)Nc2ccccc2Cl)sc2nc3c(cc12)C(=O)CCC3 | > 100 | > 27.5
24 | COc1ccc(-c2cc(Nc3ccnc(N4CCOCC4)n3)on2)cc1 | 18.5 | 1.72

test system: OVCAR-5 ovarian; experiment: inhibition of tumour cell growth, NCI panel, 48 h

Row | SMILES | TGI [µM] | GI50 [µM]
25 | CCCCCCc1cc2cc(C(=O)Nc3ccc(F)cc3)c(=N)oc2cc1O | > 100 | 
26 | CN1C(NNC(=O)c2cccnc2)=NS(=O)(=O)c2cc(Cl)ccc21 | > 100 | > 100
27 | Nc1c(C(=O)Nc2ccccc2Cl)sc2nc3c(cc12)C(=O)CCC3 | > 100 | > 100
28 | COc1ccc(-c2cc(Nc3ccnc(N4CCOCC4)n3)on2)cc1 | 20.8 | 0.684

test system: OVCAR-8 ovarian; experiment: inhibition of tumour cell growth, NCI panel, 48 h

Row | SMILES | TGI [µM] | GI50 [µM]
29 | CCCCCCc1cc2cc(C(=O)Nc3ccc(F)cc3)c(=N)oc2cc1O | 3.75 | 
30 | CN1C(NNC(=O)c2cccnc2)=NS(=O)(=O)c2cc(Cl)ccc21 | > 100 | > 100
31 | Nc1c(C(=O)Nc2ccccc2Cl)sc2nc3c(cc12)C(=O)CCC3 | > 100 | > 25
32 | COc1ccc(-c2cc(Nc3ccnc(N4CCOCC4)n3)on2)cc1 | 11.4 | 0.443

test system: PC-3 prostate; experiment: inhibition of tumour cell growth, NCI panel, 48 h

Row | SMILES | TGI [µM] | GI50 [µM]
33 | CCCCCCc1cc2cc(C(=O)Nc3ccc(F)cc3)c(=N)oc2cc1O | 13.5 | 
34 | CN1C(NNC(=O)c2cccnc2)=NS(=O)(=O)c2cc(Cl)ccc21 | > 100 | > 100
35 | Nc1c(C(=O)Nc2ccccc2Cl)sc2nc3c(cc12)C(=O)CCC3 | > 100 | 1.16
36 | COc1ccc(-c2cc(Nc3ccnc(N4CCOCC4)n3)on2)cc1 | 24.2 | 0.241

test system: RPMI-8226 leukemia; experiment: inhibition of tumour cell growth, NCI panel, 48 h

Row | SMILES | TGI [µM] | GI50 [µM]
37 | CCCCCCc1cc2cc(C(=O)Nc3ccc(F)cc3)c(=N)oc2cc1O | 4.96 | 
38 | CN1C(NNC(=O)c2cccnc2)=NS(=O)(=O)c2cc(Cl)ccc21 | > 100 | > 100
39 | Nc1c(C(=O)Nc2ccccc2Cl)sc2nc3c(cc12)C(=O)CCC3 | > 100 | > 100
40 | COc1ccc(-c2cc(Nc3ccnc(N4CCOCC4)n3)on2)cc1 | 18.6 | 0.416

test system: RXF 393 renal; experiment: inhibition of tumour cell growth, NCI panel, 48 h

Row | SMILES | GI50 [µM] | TGI [µM]
41 | CN1C(NNC(=O)c2cccnc2)=NS(=O)(=O)c2cc(Cl)ccc21 | > 100 | > 100
42 | Nc1c(C(=O)Nc2ccccc2Cl)sc2nc3c(cc12)C(=O)CCC3 | 2.37 | > 28.7
43 | COc1ccc(-c2cc(Nc3ccnc(N4CCOCC4)n3)on2)cc1 | 0.16 | 0.564

test system: SF-268 CNS; experiment: inhibition of tumour cell growth, NCI panel, 48 h

Row | SMILES | TGI [µM] | GI50 [µM]
44 | CCCCCCc1cc2cc(C(=O)Nc3ccc(F)cc3)c(=N)oc2cc1O | 5.61 | 
45 | CN1C(NNC(=O)c2cccnc2)=NS(=O)(=O)c2cc(Cl)ccc21 | > 100 | > 100
46 | Nc1c(C(=O)Nc2ccccc2Cl)sc2nc3c(cc12)C(=O)CCC3 | > 100 | 39.3
47 | COc1ccc(-c2cc(Nc3ccnc(N4CCOCC4)n3)on2)cc1 | 18.1 | 1.85

test system: SF-295 CNS; experiment: inhibition of tumour cell growth, NCI panel, 48 h

Row | SMILES | TGI [µM] | GI50 [µM]
48 | CCCCCCc1cc2cc(C(=O)Nc3ccc(F)cc3)c(=N)oc2cc1O | > 100 | 
49 | CN1C(NNC(=O)c2cccnc2)=NS(=O)(=O)c2cc(Cl)ccc21 | > 100 | > 100
50 | Nc1c(C(=O)Nc2ccccc2Cl)sc2nc3c(cc12)C(=O)CCC3 | > 27.5 | 0.542
51 | COc1ccc(-c2cc(Nc3ccnc(N4CCOCC4)n3)on2)cc1 | 5.95 | 0.171

test system: SF-539 CNS; experiment: inhibition of tumour cell growth, NCI panel, 48 h

Row | SMILES | TGI [µM] | GI50 [µM]
52 | CCCCCCc1cc2cc(C(=O)Nc3ccc(F)cc3)c(=N)oc2cc1O | 4.82 | 
53 | CN1C(NNC(=O)c2cccnc2)=NS(=O)(=O)c2cc(Cl)ccc21 | > 100 | > 100
54 | Nc1c(C(=O)Nc2ccccc2Cl)sc2nc3c(cc12)C(=O)CCC3 | > 100 | 1.15
55 | COc1ccc(-c2cc(Nc3ccnc(N4CCOCC4)n3)on2)cc1 | 1.16 | 0.264

test system: SK-MEL-2 melanoma; experiment: inhibition of tumour cell growth, NCI panel, 48 h

Row | SMILES | TGI [µM]
56 | CCCCCCc1cc2cc(C(=O)Nc3ccc(F)cc3)c(=N)oc2cc1O | 9.98
